Experimental data taken from article PMC9919437 (Molecules, 2023).
Entries after “also recorded” stand apart in the source; their conditions may differ.

Experiments:
[1] = target: BC2L-C-Nt; parameters: method as in PMID 36174276; conditions: SPR, BC2L-C-Nt immobilized on CM5 chip; said not to correlate with ITC; read-out: apparent Kd; cited from earlier work
[2] = parameters: method as in PMID 36174276; conditions: cited from earlier work
[3] = Water solubility; type: physicochemical; conditions: fully soluble at least up to
[4] = target: the molecule itself; assay: crystal structure; hexagonal crystal form (P6_3), one protomer in the asymmetric unit, trimer by the 3-fold crystallographic symmetry; cocrystals with H-type 1 oligosaccharide soaked with 3 mM compound 3 in 2.47 M sodium malonate pH 7.0 for 48 h at 19 °C

Molecule | solubility [3] | also measured
C[C@@H]1O[C@H](NC(=O)c2ccc(-c3cccc(N)c3)o2)[C@@H](O)[C@H](O)[C@@H]1O [compound 2] | – | Kd [1]: 2400 µM; water solubility (in words) [2]: very low water solubility; also recorded: water-insoluble
C[C@@H]1O[C@H](NC(=O)c2ccc(-c3cccc(CN)c3)o2)[C@@H](O)[C@H](O)[C@@H]1O [compound 3] | ≥ 2000 µM | –
NCc1cccc(-c2ccc(C(=O)NC3OC(CO)C(O)C(O)C3O)o2)c1 (stereo not drawn) [compound 4] | ≥ 2000 µM | –
C[C@@H]1O[C@H](NC(=O)c2ccco2)[C@@H](O)[C@H](O)[C@@H]1O [compound 17, Furan-2-carboxamido-β-L-fucopyranose] | ≥ 2000 µM | –
N-terminal domain of the lectin BC2L-C from Burkholderia cenocepacia (domain or fragment, also called BC2L-C-Nt; BC2L-C N-terminal domain; not shown: expression tag, N-terminal, cleaved) MPLLSASIVSAPVVTSETYVDIPGLYLDVAKAGIRDGKLQVILNVPTPYATGNNFPGIYFAIATNQGVVADGCFTYSSKVPESTGRMPFTLVATIDVGSGVTFVKGQWKSVRGSAMHIDSYASLSAIWGTAA | – | stoichiometry N [4]: 3
